From US20220347260A1, “Combination of An Agonist Anti-PD-1 Antibody With a GnRH Agonist or Antagonist to Treat Cancer” (Debiopharm International SA, priority 2017, published 2022)

Legend:
[1] = Phase I study Debio 8200-IMM-101, Patient A: serum testosterone levels; assay type: in vivo, human; settings: baseline Day 1 15.7 nmol/L, castrate range <1.735 nmol/L
Procedure: The study involves 3 to 12 treatment cycles (depending on individual responses) of 28 days each. Patients receive triptorelin embonate (pamoate) 3.75 mg one-month formulation i.m. on day 1 of each 28-day cycle and nivolumab (Opdivo®) at 3 mg/kg body weight i.v. (1-hour infusion) on days 1 and 15 of each cycle. On day 1 of each cycle, triptorelin is administered prior to nivolumab. In addition, patients take bicalutamide 50 mg p.o. once daily for 28 days throughout cycle 1 only, to counteract the initial testosterone “flare” induced by triptorelin.
On 12 Jun. 2018 the patient was enrolled in the protocol Debio 8200-IMM-101 and received the first injections of triptorelin -anti-androgen bicalutamide was added for 28 days- and anti-PD-1 molecule nivolumab.
As expected due to triptorelin treatment, the serum testosterone levels of the patient decreased from a baseline (Day 1) level of 15.7 nmol/L on 12 Jun. 2018 to a very low castrate level of 0.6 nmol/L four weeks later 10 Jul. 2018 (Day 29), and have remained in the castrate range (i.e. <1.735 nmol/L) until the last value available to date of 0.69 nmol/L on 29 Oct. 2018 (Day 141).

[2] = tested on: melanoma; settings: melanoma patients in phase II or III trials; in some cases for more than ten years; cited from earlier work
[3] = tested on: melanoma metastasis in the pancreas; test: Patient A: prior pembrolizumab treatment, tumor response by PET-CT; assay type: in vivo, human
Procedure: A person (at screening on 23 May 2018) […] had been operated on 26 Sep. 2016 for left lung lobectomy for melanoma metastasis of unknown origin. On 21 Aug. 2017, biopsy of PET-CT (Positron emission tomography—computed tomography) detected a new melanoma metastasis in the pancreas. From 27 Sep. 2017 until 13 Mar. 2018 (last administration at Cycle 9) they were treated with anti-PD-1 molecule pembrolizumab. On 12 Dec. […] However, on 30 Mar. […] On 23 May 2018, the size of this unique pancreatic metastasis was 34 mm on CT-scan.

Compound: CC(C)C[C@H](NC(=O)[C@@H](Cc1c[nH]c2ccccc12)NC(=O)[C@H](Cc1ccc(O)cc1)NC(=O)[C@H](CO)NC(=O)[C@H](Cc1c[nH]c2ccccc12)NC(=O)[C@H](Cc1c[nH]cn1)NC(=O)[C@@H]1CCC(=O)N1)C(=O)N[C@@H](CCCNC(=N)N)C(=O)N1CCC[C@H]1C(=O)NCC(N)=O [triptorelin, pyroGlu-His-Trp-Ser-Tyr-D-Trp-Leu-Arg-Pro-Gly-NH2]
- serum testosterone level ([1]; Day 29 (10 Jul. 2018)): 0.6 nmol/L
- serum testosterone level ([1]; Day 141 (29 Oct. 2018)): 0.69 nmol/L

Compound: Ipilimumab: fully human IgG1 CTLA-4-blocking monoclonal antibody from Bristol-Myers Squibb
- durable survival, patients [2]: about 20%

Compound: pembrolizumab: humanized IgG4 monoclonal anti-PD-1 antibody from Merck
- tumor response ([3]; 12 Dec. 2017, pembrolizumab from 27 Sep. 2017 until 13 Mar. 2018): Partial Response (PR)
- tumor response ([3]; 30 Mar. 2018, PET-CT, after Cycle 9 of pembrolizumab): progression (PD)
